Values after ≈ are worked out from the molar mass of the structure shown. Where two headings read alike, the source gives them in different places.

The source of these data is paper PMC6445171 (Journal of Enzyme Inhibition and Medicinal Chemistry, 2017).

The conditions of series [1]: cited from earlier work.
A short description of another series: physchem. To be noted: pH 7.4, aqueous buffer.

In the case of `COCCOc1ccc(N2CCN(CCn3ncc4c3nc(N)n3nc(-c5ccco5)nc43)CC2)cc1` [Preladenant], the Solubility (as a rule, how much of the substance goes into solution per volume) in series [1] (reference antagonist) is 0.02 µM (≈ 0.0101 µg/mL).
The compound `Nc1ccc2oc(-c3ccco3)nc2c1` [Compound D1, 2-(Furan-2-yl)-1,3-benzoxazol-5-amine] came in with a Solubility in the series “physchem” of 28 µM (≈ 5.61 µg/mL).
In the case of `CCn1c(=O)c2c(nc(/C=C/c3ccc(OC)c(OC)c3)n2C)n(CC)c1=O` [Istradefylline], the Solubility in series [1] (reference antagonists) was 1.5 µM (≈ 0.577 µg/mL).
